Drawing on ChEMBL document CHEMBL3352575, “Synthesis, in vitro and in vivo antitumor activity of pyrazole-fused 23-hydroxybetulinic acid derivatives” (Bioorg Med Chem Lett, 2015), this text covers inhibition in vivo and IC50 for eight compounds.

Assay [1] relates to H22. The assay is described as follows: Antitumor activity against […] H22 cells […] in ICR mouse assessed as tumor growth inhibition at 30 mg/kg, ip administered 7 days post inoculation measured at day 25 of tumor transplantation. The format is functional. To be noted: route intraperitoneal. On the technique in general: Xenograft models place foreign cells or tissue in a host animal.

Assay [2] deals with B16. The experiment in a line: Antitumor activity against mouse B16 cells allografted in ICR mouse assessed as tumor growth inhibition at 30 mg/kg, ip administered 7 days post inoculation measured at day 25 of tumor transplantation. The format is functional. The settings on record: route intraperitoneal.
Assay [3] deals with B16. The experiment in a line: Antiproliferative activity against mouse B16 cells after 72 hrs by MTT assay. The format is functional, cell-based. The settings on record: B16, 72 h. (Tetrazolium dyes change colour on reduction, which living cells bring about.)
For another assay, the system named is HeLa. The experiment in a line: Antiproliferative activity against human HeLa cells after 72 hrs by MTT assay. The format is functional, cell-based.
Assay [4] in a line: Antiproliferative activity against human SF763 cells after 72 hrs by MTT assay. The format is functional, cell-based. To be noted: SF763, 72 h.
The nature of assay [5]: Antiproliferative activity against human HL60 cells after 72 hrs by MTT assay. The format is functional, cell-based. The settings on record: HL-60, 72 h.
Assay [6] in a line: Antiproliferative activity against human Bel7402 cells after 72 hrs by MTT assay. The settings on record: Bel-7402, 72 h. The format is functional, cell-based.
The subject of assay [7] is B16. The experiment in a line: Antitumor activity against mouse B16 cells allografted in ICR mouse assessed as tumor growth inhibition at 30 mg/kg, iv administered 7 days post inoculation measured at day 25 of tumor transplantation. The format is functional.
The subject of assay [8] is H22. The assay is described as follows: Antitumor activity against human H22 cells xenografted in ICR mouse assessed as tumor growth inhibition at 30 mg/kg, iv administered 7 days post inoculation measured at day 25 of tumor transplantation. To be noted: read-out: INH.

`C=C(C)[C@@H]1CC[C@]2(C(=O)O)CC[C@]3(C)[C@H](CC[C@@H]4[C@@]5(C)CC[C@H](O)[C@@](C)(CO)[C@@H]5CC[C@]43C)[C@@H]12`: the figures for the inhibition in vivo at 30 mg/kg in the assay with H22 [1] and with B16 [2] were 27.8% and 32.4%, respectively.

On to `O=c1[nH]cc(F)c(=O)[nH]1` [FLUOROURACIL], for which the IC50 (usually the point on the concentration scale where inhibition reaches its midpoint) amounted to 10.5 µM in the assay with B16 [3]; 9.09 µM with HeLa; 9.34 µM in assay [4]; 10.5 µM in assay [5]; 11.8 µM in assay [6]. Moreover, the inhibition in vivo at 30 mg/kg in the assay with B16 [7] was determined as 70.3%.

Regarding `C=C(C)[C@@H]1CC[C@]2(C(=O)NCCN)CC[C@]3(C)[C@H](CC[C@@H]4[C@@]5(C)Cc6c[nH]nc6[C@@](C)(COC(C)=O)[C@@H]5CC[C@]43C)[C@@H]12`, the inhibition in vivo at 30 mg/kg came out at 51.2% in the assay on H22 [1] and 58.9% with B16 [2]. Moreover, the IC50 in the assay with B16 [3] was 5.58 µM; with HeLa, 8.97 µM; in [4], 6.13 µM; in assay [5] it was 8.04 µM; in assay [6], 8.12 µM.

Consider `O=P1(N(CCCl)CCCl)NCCCO1` (stereo unspecified) [CYCLOPHOSPHAMIDE ANHYDROUS], for which the inhibition in vivo at 30 mg/kg with H22 [8] was 53.7%.

On to `C=CCOC(=O)[C@]12CC[C@@H](C(=C)C)[C@@H]1[C@H]1CC[C@@H]3[C@@]4(C)Cc5cn(CC=C)nc5[C@@](C)(COC(C)=O)[C@@H]4CC[C@@]3(C)[C@]1(C)CC2`, for which the IC50 was determined as 20.1 µM with B16 [3]; 27.3 µM with HeLa; 22 µM in assay [4]; 30.8 µM in [5]; 33.5 µM in assay [6].

Take `C=CCOC(=O)[C@]12CC[C@@H](C(=C)C)[C@@H]1[C@H]1CC[C@@H]3[C@@]4(C)Cc5cn(C(C)=O)nc5[C@@](C)(COC(C)=O)[C@@H]4CC[C@@]3(C)[C@]1(C)CC2`: the IC50 is 19.8 µM in the assay on B16 [3]; 27.4 µM in the assay on HeLa; 19.5 µM in assay [4]; 32.3 µM in assay [5]; 23.1 µM in assay [6].

For the compound `C=C(C)[C@@H]1CC[C@]2(C(=O)OCC)CC[C@]3(C)[C@H](CC[C@@H]4[C@@]5(C)Cc6cn(C(C)=O)nc6[C@@](C)(COC(C)=O)[C@@H]5CC[C@]43C)[C@@H]12`, the IC50 was 30.2 µM in the assay with B16 [3]; 32.6 µM in the assay with HeLa; 29.4 µM in [4]; 40.2 µM in assay [5]; 33.7 µM in [6].

For `C=C(C)[C@@H]1CC[C@]2(C(=O)N3CCOCC3)CC[C@]3(C)[C@H](CC[C@@H]4[C@@]5(C)Cc6c[nH]nc6[C@@](C)(CO)[C@@H]5CC[C@]43C)[C@@H]12`, the IC50 in the assay on B16 [3] was determined as 31.1 µM; in the assay on HeLa it was 35.5 µM; in [4] it was 33.7 µM; in assay [5], 39 µM; in assay [6], 39.4 µM.
